Reference: PubChem BioAssay AID1259407 (Chemical Carcinogenesis Research Information System (CCRIS), 2018)
Active and inactive are the calls of the source. How the calls were made is not given here.

System: CCRIS mutagenicity, Ames/micronucleus/aberration tests
Assay: CCRIS mutagenicity studies

In the case of `O=C(O)C(Cl)Cl`, the mutagenic call (End Point: IN VITRO CHROMOSOMAL ABERRATIONS, Test System: CHL CELLS, Metabolic Activation: RAT, LIVER, S-9, SODIUM PHENOBARBITAL AND 5,6-BENZOFLAVONE) is reported as “active; positive (structural changes)”, the mutagenic call (End Point: In vivo micronucleus, Test System: Normochromatic erythrocytes, Species: Mouse, Strain/Sex: B6C3F1/Male, Route: Oral) is reported as “inactive; negative” and the mutagenic call (End Point: In vivo micronucleus, Test System: Peripheral blood normochromatic erythrocytes, Species: Mouse, Strain/Sex: B6C3F1/Female, Route: Oral) is reported as “inactive; negative; increase in frequency of micronucleated erythrocytes was judged to be”. The mutagenic call (End Point: In vivo micronucleus, Test System: Peripheral blood normochromatic erythrocytes, Species: Mouse, Strain/Sex: B6.129-TRP53TM1 BRD/Female, Route: Oral) was “inactive; negative”, the mutagenic call (End Point: In vivo micronucleus, Test System: Peripheral blood normochromatic erythrocytes, Species: Mouse, Strain/Sex: B6.129-TRP53TM1 BRD/Male, Route: Oral) was “inactive; negative” and the mutagenic call (End Point: In vivo micronucleus, Test System: Peripheral blood normochromatic erythrocytes, Species: Mouse, Strain/Sex: FVB/N-TgN (v-Ha-ras)Led (Tg.AC) hemizygous/Female, Route: Dermal) was “inactive; negative”. For the same molecule, the mutagenic call (End Point: In vivo micronucleus, Test System: Peripheral blood normochromatic erythrocytes, Species: Mouse, Strain/Sex: FVB/N-TgN (v-Ha-ras)Led (Tg.AC) hemizygous/Male, Route: Dermal) was “inactive; negative”, the mutagenic call (End Point: In vivo micronucleus, Test System: Peripheral blood normochromatic erythrocytes, Species: Mouse, Strain/Sex: Tg.AC hemizygous/Female, Route: Oral) was “inactive; negative” and the mutagenic call (End Point: In vivo micronucleus, Test System: Peripheral blood normochromatic erythrocytes, Species: Mouse, Strain/Sex: Tg.AC hemizygous/Male, Route: Oral) was “inactive; negative”. The mutagenic call (Test System: AMES SALMONELLA TYPHIMURIUM, Strain/Indicator: RSJ100, Metabolic Activation: NONE, Method: PREINCUBATION) was “active; positive”, the mutagenic call (Test System: AMES SALMONELLA TYPHIMURIUM, Strain/Indicator: RSJ100, Metabolic Activation: RAT LIVER S-9, Method: PREINCUBATION) was “inactive; negative” and the mutagenic call (Test System: AMES SALMONELLA TYPHIMURIUM, Strain/Indicator: TA98, Metabolic Activation: NONE, Method: STANDARD PLATE) was “inactive; negative”. For the same molecule, the mutagenic call (Test System: AMES SALMONELLA TYPHIMURIUM, Strain/Indicator: TA98, Metabolic Activation: RAT LIVER S-9, Method: PREINCUBATION) was “inactive; negative”, the mutagenic call (Test System: AMES SALMONELLA TYPHIMURIUM, Strain/Indicator: TA98, Metabolic Activation: RAT, LIVER, S-9, AROCLOR 1254, Method: STANDARD PLATE) was “inactive; negative” and the mutagenic call (Test System: AMES SALMONELLA TYPHIMURIUM, Strain/Indicator: TA98, Metabolic Activation: RAT, LIVER, S-9, PHENOBARBITAL AND 5,6-BENZOFLAVONE, Method: PREINCUBATION) was “inactive; negative”. For the same molecule, the mutagenic call (Test System: AMES SALMONELLA TYPHIMURIUM, Strain/Indicator: TA100, Metabolic Activation: NONE, Method: BAG VAPORIZATION) was “active; positive”, the mutagenic call (Test System: AMES SALMONELLA TYPHIMURIUM, Strain/Indicator: TA100, Metabolic Activation: NONE, Method: FLUCTUATION TEST) was “active; positive” and the mutagenic call (Test System: AMES SALMONELLA TYPHIMURIUM, Strain/Indicator: TA100, Metabolic Activation: NONE, Method: PREINCUBATION) was “active; positive”. For the same molecule, the mutagenic call (Test System: AMES SALMONELLA TYPHIMURIUM, Strain/Indicator: TA100, Metabolic Activation: NONE, Method: STANDARD PLATE) was “inactive; negative”, the mutagenic call (Test System: AMES SALMONELLA TYPHIMURIUM, Strain/Indicator: TA100, Metabolic Activation: RAT LIVER S-9, Method: PREINCUBATION) was “active; positive” and the mutagenic call (Test System: AMES SALMONELLA TYPHIMURIUM, Strain/Indicator: TA100, Metabolic Activation: RAT, LIVER, S-9, AROCLOR 1254, Method: BAG VAPORIZATION) was “active; positive”. For the same molecule, the mutagenic call (Test System: AMES SALMONELLA TYPHIMURIUM, Strain/Indicator: TA100, Metabolic Activation: RAT, LIVER, S-9, AROCLOR 1254, Method: FLUCTUATION TEST) was “active; positive”, the mutagenic call (Test System: AMES SALMONELLA TYPHIMURIUM, Strain/Indicator: TA100, Metabolic Activation: RAT, LIVER, S-9, AROCLOR 1254, Method: STANDARD PLATE) was “inactive; negative” and the mutagenic call (Test System: AMES SALMONELLA TYPHIMURIUM, Strain/Indicator: TA100, Metabolic Activation: RAT, LIVER, S-9, PHENOBARBITAL AND 5,6-BENZOFLAVONE, Method: PREINCUBATION) was “inactive; negative”. The mutagenic call (Test System: AMES SALMONELLA TYPHIMURIUM, Strain/Indicator: TA102, Metabolic Activation: NONE, Method: STANDARD PLATE) was “inactive; negative”, the mutagenic call (Test System: AMES SALMONELLA TYPHIMURIUM, Strain/Indicator: TA102, Metabolic Activation: RAT LIVER S-9, AROCLOR 1254, Method: STANDARD PLATE) was “inactive; negative” and the mutagenic call (Test System: AMES SALMONELLA TYPHIMURIUM, Strain/Indicator: TA102, Metabolic Activation: RAT, LIVER, S-9, PHENOBARBITAL AND 5,6-BENZOFLAVONE, Method: STANDARD PLATE) was “inactive; negative”. For the same molecule, the mutagenic call (Test System: AMES SALMONELLA TYPHIMURIUM, Strain/Indicator: TA1535, Metabolic Activation: NONE, Method: STANDARD PLATE) was “inactive; negative”, the mutagenic call (Test System: AMES SALMONELLA TYPHIMURIUM, Strain/Indicator: TA1535, Metabolic Activation: RAT, LIVER, S-9, AROCLOR 1254, Method: STANDARD PLATE) was “inactive; negative” and the mutagenic call (Test System: AMES SALMONELLA TYPHIMURIUM, Strain/Indicator: TA1537, Metabolic Activation: NONE, Method: STANDARD PLATE) was “inactive; negative”. The mutagenic call (Test System: AMES SALMONELLA TYPHIMURIUM, Strain/Indicator: TA1537, Metabolic Activation: RAT, LIVER, S-9, AROCLOR 1254, Method: STANDARD PLATE) was “inactive; negative”, the mutagenic call (Test System: AMES SALMONELLA TYPHIMURIUM, Strain/Indicator: TA2638, Metabolic Activation: RAT, LIVER, S-9, PHENOBARBITAL AND 5,6-BENZOFLAVONE, Method: STANDARD PLATE) was “inactive; negative” and the mutagenic call (Test System: Ames Salmonella typhimurium, Strain/Indicator: TA98, Metabolic Activation: Hamster, liver, S-9, Aroclor 1254 (30%), Method: Preincubation) was “inactive; negative”. The mutagenic call (Test System: Ames Salmonella typhimurium, Strain/Indicator: TA98, Metabolic Activation: Hamster, liver, S-9, Aroclor 1254, 30%, Method: Preincubation) was “inactive; negative”, the mutagenic call (Test System: Ames Salmonella typhimurium, Strain/Indicator: TA98, Metabolic Activation: Rat, liver, S-9, Aroclor 1254, 30%, Method: Preincubation) was “inactive; negative” and the mutagenic call (Test System: Ames Salmonella typhimurium, Strain/Indicator: TA100, Metabolic Activation: Hamster, liver, S-9, Aroclor 125, 30%, Method: Preincubation) was “inactive; negative”. For the same molecule, the mutagenic call (Test System: Ames Salmonella typhimurium, Strain/Indicator: TA100, Metabolic Activation: Hamster, liver, S-9, Aroclor 1254, 30%, Method: Preincubation) was “inactive; negative”, the mutagenic call (Test System: Ames Salmonella typhimurium, Strain/Indicator: TA100, Metabolic Activation: None, Method: Preincubation) was “active; positive” and the mutagenic call (Test System: Ames Salmonella typhimurium, Strain/Indicator: TA100, Metabolic Activation: Rat, liver, S-9, Aroclor 1254, 30%, Method: Preincubation) was “inactive; negative”. The mutagenic call (Test System: Ames Salmonella typhimurium, Strain/Indicator: TA1535, Metabolic Activation: None, Method: Preincubation) was “active; positive, three trials performed; ntp described results as positive, weakly posi”, the mutagenic call (Test System: E. COLI, Strain/Indicator: WP2 (PKM101), Metabolic Activation: RAT, LIVER, S-9, PHENOBARBITAL AND 5,6-BENZOFLAVONE, Method: STANDARD PLATE) was “inactive; negative” and the mutagenic call (Test System: E. COLI, Strain/Indicator: WP2 UVRA (PKM101), Metabolic Activation: RAT, LIVER, S-9, PHENOBARBITAL AND 5,6-BENZOFLAVONE, Method: STANDARD PLATE) was “inactive; negative”. The mutagenic call (Test System: E. COLI, Strain/Indicator: WP2 UVRA, Metabolic Activation: NONE, Method: STANDARD PLATE) was “inactive; negative”, the mutagenic call (Test System: E. COLI, Strain/Indicator: WP2 UVRA, Metabolic Activation: RAT, LIVER, S-9, AROCLOR 1254, Method: STANDARD PLATE) was “inactive; negative” and the mutagenic call (Test System: MOUSE LYMPHOMA, Strain/Indicator: L5178Y (TK+/TK- -3.7.2C), Metabolic Activation: NONE) was “active; positive”. For the same molecule, the mutagenic call (Test System: MOUSE LYMPHOMA, Strain/Indicator: L5178Y (TK+/TK-), Metabolic Activation: NONE, Method: SUSPENSION/PLATE) was “inactive; negative” and the mutagenic call (Test System: MOUSE LYMPHOMA, Strain/Indicator: L5187Y (TK+/TK-), Metabolic Activation: RAT, LIVER, S-9, AROCLOR 1254, Method: SUSPENSION/PLATE) was “inactive; negative”.
